Results: PubChem BioAssay (NCI)
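Exposure lasted 48 hours, with cells grown in 96-well plates and compounds tested at five concentrations. At the GI50, growth is halved. TGI denotes the concentration required for complete inhibition of growth.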 Where a SMILES comes first, the peptide text is derived from it. The star is where a group is joined. Boc = CC(C)(C)OC(=O)*; OcHex = C1CCC(O*)CC1

Tests used:
Assay in all cases: NCI tumour cell line growth inhibition, 48 h
A498 renal = system: A498 renal
NCI-H23 lung = system: NCI-H23 lung
SK-MEL-5 melanoma = system: SK-MEL-5 melanoma
CAKI-1 renal = system: CAKI-1 renal
BT-549 breast = system: BT-549 breast
NCI-H522 lung = system: NCI-H522 lung
UACC-257 melanoma = system: UACC-257 melanoma
RPMI-8226 leukemia = system: RPMI-8226 leukemia
HOP-62 NSCLC = system: HOP-62 NSCLC
UO-31 renal = system: UO-31 renal
MDA-MB-231 breast = system: MDA-MB-231 breast
HS 578T breast = system: HS 578T breast
SNB-19 CNS = system: SNB-19 CNS
M14 melanoma = system: M14 melanoma
CCRF-CEM leukemia = system: CCRF-CEM leukemia
NCI-H226 lung = system: NCI-H226 lung
OVCAR-8 ovarian = system: OVCAR-8 ovarian
PC-3 prostate = system: PC-3 prostate
K-562 leukemia = system: K-562 leukemia
A549 NSCLC = system: A549 NSCLC
SK-MEL-2 melanoma = system: SK-MEL-2 melanoma
SN12C renal = system: SN12C renal
MALME-3M melanoma = system: MALME-3M melanoma
SNB-75 CNS = system: SNB-75 CNS
EKVX NSCLC = system: EKVX NSCLC
TK-10 renal = system: TK-10 renal
KM12 colon = system: KM12 colon
T-47D breast = system: T-47D breast
SK-MEL-28 melanoma = system: SK-MEL-28 melanoma
OVCAR-4 ovarian = system: OVCAR-4 ovarian
HOP-92 NSCLC = system: HOP-92 NSCLC
MCF7 breast = system: MCF7 breast
SF-268 CNS = system: SF-268 CNS
UACC-62 melanoma = system: UACC-62 melanoma
DU-145 prostate = system: DU-145 prostate
MOLT-4 leukemia = system: MOLT-4 leukemia
SF-295 CNS = system: SF-295 CNS
COLO 205 colon = system: COLO 205 colon
NCI-H460 lung = system: NCI-H460 lung
HCC-2998 colon = system: HCC-2998 colon
MDA-MB-435 = system: MDA-MB-435
SK-OV-3 ovarian = system: SK-OV-3 ovarian
NCI/ADR-RES ovarian = system: NCI/ADR-RES ovarian
HL-60(TB) leukemia = system: HL-60(TB) leukemia
786-0 renal = system: 786-0 renal
IGROV1 ovarian = system: IGROV1 ovarian
SW-620 colon = system: SW-620 colon
HCT-116 colon = system: HCT-116 colon
U251 CNS = system: U251 CNS
HCT-15 colon = system: HCT-15 colon

COc1cc(/C=C/c2cc(/C=C/c3ccc(O)c(OC)c3)n(C(=O)c3ccccc3Br)n2)ccc1O
GI50 (A498 renal): 3.04 µM
TGI (A498 renal): 8.71 µM
GI50 (NCI-H23 lung): 2.68 µM
TGI (NCI-H23 lung): 16.9 µM
GI50 (SK-MEL-5 melanoma): 2.56 µM
TGI (SK-MEL-5 melanoma): 13.3 µM
GI50 (CAKI-1 renal): 2.2 µM
TGI (CAKI-1 renal): > 100 µM
GI50 (BT-549 breast): 2.12 µM
TGI (BT-549 breast): 7.75 µM
GI50 (NCI-H522 lung): 1.38 µM
TGI (NCI-H522 lung): 6.32 µM
GI50 (UACC-257 melanoma): 3.36 µM
TGI (UACC-257 melanoma): 40.1 µM
GI50 (RPMI-8226 leukemia): 2.05 µM
TGI (RPMI-8226 leukemia): 6 µM
GI50 (HOP-62 NSCLC): 3.41 µM
TGI (HOP-62 NSCLC): 16.3 µM
GI50 (UO-31 renal): 2.36 µM
TGI (UO-31 renal): 34.1 µM
GI50 (MDA-MB-231 breast): 3.59 µM
TGI (MDA-MB-231 breast): > 100 µM
GI50 (HS 578T breast): 2.75 µM
TGI (HS 578T breast): 48.6 µM
GI50 (SNB-19 CNS): 2.7 µM
TGI (SNB-19 CNS): > 100 µM
GI50 (M14 melanoma): 3.07 µM
TGI (M14 melanoma): > 100 µM
GI50 (CCRF-CEM leukemia): 0.841 µM
TGI (CCRF-CEM leukemia): 6.14 µM
GI50 (NCI-H226 lung): 3.29 µM
TGI (NCI-H226 lung): 56.5 µM
GI50 (OVCAR-8 ovarian): 2.75 µM
TGI (OVCAR-8 ovarian): 12.4 µM
GI50 (PC-3 prostate): 3.02 µM
TGI (PC-3 prostate): 66.9 µM
GI50 (K-562 leukemia): 1.45 µM
TGI (K-562 leukemia): > 100 µM
GI50 (A549 NSCLC): 3.05 µM
TGI (A549 NSCLC): 45.3 µM
GI50 (SK-MEL-2 melanoma): 2.37 µM
TGI (SK-MEL-2 melanoma): 5.92 µM
GI50 (SN12C renal): 2.22 µM
TGI (SN12C renal): > 100 µM
GI50 (MALME-3M melanoma): 3.27 µM
TGI (MALME-3M melanoma): 43.6 µM
GI50 (SNB-75 CNS): 2.79 µM
TGI (SNB-75 CNS): 15.4 µM
GI50 (EKVX NSCLC): 4.72 µM
TGI (EKVX NSCLC): > 100 µM
GI50 (TK-10 renal): 3.85 µM
TGI (TK-10 renal): 33 µM
GI50 (KM12 colon): 2.22 µM
TGI (KM12 colon): > 100 µM
GI50 (T-47D breast): 2.93 µM
TGI (T-47D breast): 13.2 µM
GI50 (SK-MEL-28 melanoma): 2.57 µM
TGI (SK-MEL-28 melanoma): 8.71 µM
GI50 (OVCAR-4 ovarian): 3.64 µM
TGI (OVCAR-4 ovarian): 22.8 µM
GI50 (HOP-92 NSCLC): 3.82 µM
TGI (HOP-92 NSCLC): 9.65 µM
GI50 (MCF7 breast): 3 µM
TGI (MCF7 breast): 13 µM
GI50 (SF-268 CNS): 2.44 µM
TGI (SF-268 CNS): > 100 µM
GI50 (UACC-62 melanoma): 2.64 µM
TGI (UACC-62 melanoma): 8.77 µM
GI50 (DU-145 prostate): 3.29 µM
TGI (DU-145 prostate): 34.8 µM
GI50 (MOLT-4 leukemia): 1.23 µM
TGI (MOLT-4 leukemia): > 100 µM
GI50 (SF-295 CNS): 3.12 µM
TGI (SF-295 CNS): 35.1 µM
GI50 (COLO 205 colon): 2.31 µM
TGI (COLO 205 colon): 4.63 µM
GI50 (NCI-H460 lung): 2.99 µM
TGI (NCI-H460 lung): > 100 µM
GI50 (HCC-2998 colon): 2.48 µM
TGI (HCC-2998 colon): 6.37 µM
GI50 (MDA-MB-435): 0.687 µM
TGI (MDA-MB-435): 8.06 µM
GI50 (SK-OV-3 ovarian): 2.24 µM
TGI (SK-OV-3 ovarian): 5.31 µM
GI50 (NCI/ADR-RES ovarian): 3.72 µM
TGI (NCI/ADR-RES ovarian): > 100 µM
GI50 (HL-60(TB) leukemia): 2.07 µM
TGI (HL-60(TB) leukemia): 6 µM
GI50 (786-0 renal): 3.19 µM
TGI (786-0 renal): > 100 µM
GI50 (IGROV1 ovarian): 4.11 µM
TGI (IGROV1 ovarian): > 100 µM
GI50 (SW-620 colon): 3.66 µM
TGI (SW-620 colon): > 100 µM
GI50 (HCT-116 colon): 3.06 µM
TGI (HCT-116 colon): > 100 µM
GI50 (U251 CNS): 2.62 µM
TGI (U251 CNS): > 100 µM
GI50 (HCT-15 colon): 2.8 µM
TGI (HCT-15 colon): > 100 µM

CC(C)CC(NC(=O)OC(C)(C)C)C(=O)NC(CCC(=O)OC1CCCCC1)C(N)=O (stereo not drawn) (Boc-Leu-Glu(OcHex)-NH2; configuration not given here)
GI50 (BT-549 breast): 63.5 µg/mL
GI50 (NCI-H522 lung): 12.2 µg/mL
TGI (NCI-H522 lung): 45.9 µg/mL
GI50 (UACC-257 melanoma): 51.2 µg/mL
GI50 (UO-31 renal): 94.8 µg/mL
GI50 (M14 melanoma): 78.8 µg/mL
GI50 (K-562 leukemia): 51.9 µg/mL
GI50 (MALME-3M melanoma): 42.9 µg/mL
GI50 (SNB-75 CNS): 71.5 µg/mL
GI50 (SK-MEL-28 melanoma): 44.8 µg/mL
GI50 (HOP-92 NSCLC): 12.5 µg/mL
TGI (HOP-92 NSCLC): 36.7 µg/mL
GI50 (UACC-62 melanoma): 94.8 µg/mL
GI50 (MOLT-4 leukemia): 62.9 µg/mL
GI50 (SK-OV-3 ovarian): 92.7 µg/mL
